We go through seven compounds from patent publication US20220402873A1, “NOVEL P62 LIGAND COMPOUND, AND COMPOSITION CONTAINING SAME FOR PREVENTING, AMELIORATING, OR TREATING PROTEINOPATHIES” (AUTOTAC INC., priority 2019, published 2022).

Format in all cases: cell-based
The target of experiment [1] is T1, p62 protein (Homo sapiens, UniProt Q13501). The experiment can be described thus: Oligomerization activity of p62 protein by immunoblotting. Particulars: HEK293 cell line lysate treated with test compounds for 2 hours at room temperature. The arrangement: endogenous in cells. The text has this:
In order to evaluate the oligomerization activity efficacy of p62 protein of the compounds (Examples 1-20), HEK293 cell line, which is human embryonic kidney-derived cell, was collected. As representative compounds of the present compounds, the compounds of Examples 1-20 (Example 1 (ATB10048), Example 2 (ATB10047), Example 3 (ATB10049), Example 4 (ATB10051), Example 5 (ATB10050), Example 6 (ATB10056), Example 7 (ATB10052), Example 8 (ATB10057), Example 9 (ATB10060), Example 10 (ATB10072), Example 11 (ATB10075), Example 12 (ATB10078), Example 13 (ATB10079), Example 14 (ATB10080), Example 15 (ATB10081), Example 16 (ATB10087), Example 17 (ATB10096), Example 18 (ATB10097), Example 19 (ATB10099) and Example 20 (ATB10100)) were selected, and in order to measure the activation and oligomerization of the p62 protein in cells according to the treatment with these selected representative compounds, each cell was dispensed into a 100 phi dish. The cells were collected after additional culture for 24 hours so that the cells were completely attached to the surface of the plate, and 100 ul of lysis buffer (20 mM Tris (pH 7.4), 150 mM NaCl, 1% Triton X-100, 2 mM NaF, 2 mM EDTA, 2 mM beta-glycerophosphate, 5 mM sodium orthovanadate, 1 mM PMSF, leupeptin, aproteinin) was injected to each sample, and the cells were lysed. Based on the measured total protein concentration, each sample was treated with the test compounds for 2 hours at room temperature, and then a sample buffer was added and reacted at 95° C. for 10 minutes. 25 ul was taken from the samples after the reaction was completed and dispensed into each well of an acrylamide gel, and immunoblotting was performed.

In experiment [2] the target is T1, p62 protein. The experiment in a line: Activity of p62 protein and delivery of ubiquitinated substrate proteins to autophagy by immunofluorescence staining (p62, FK2) and confocal microscopy. Also noted: endogenous in cells; host or cells: HeLa. Particulars: Hela cell line, 1 uM, 6 hours. The method, then: Immunofluorescence staining was performed using p62 and FK2 as markers to determine the level of the activity of p62 protein of the compounds (Examples 1-20). In order to determine the level of p62 activity and autophagy activity by the novel p62 ligand and its isomers in the cultured cells, the Hela cell line derived from cervical cancer patients was treated with a novel p62 ligand compound (Example 1 (ATB10048), Example 2 (ATB10047), Example 3 (ATB10049), Example 5 (ATB10050), Example 4 (ATB10051), Example 7 (ATB10052), Example 6 (ATB10056), Example 8 (ATB10057), Example 9 (ATB10060), Example 10 (ATB10072), Example 11 (ATB10075), Example 12 (ATB10078), […], Example 14 (ATB10080), Example 15 (ATB10081), Example 16 (ATB10087)), Example 17 (ATB0096), Example 18 (ATB10097), Example 19 (ATB10099) and Example 20 (ATB10100)) and cultured, and then the level of puncta expression and location of FK2, which was a marker of the protein to be delivered to and degraded in the autophagy through the mediation of the intracellular ubiquitinated p62, and the puncta local co-existence with p62 were observed.
For immunofluorescence staining, a cover glass was placed on a 24-well plate, cells were dispensed and cultured for 24 hours, and then 1 uM of the novel p62 ligand according to the present invention was treated. After culturing for an additional 6 hours for the action of the compound, the medium was removed, and the cells were fixed using formaldehyde at room temperature. In order to prevent non-specific staining, the cells were reacted with a blocking solution at room temperature for 1 hour, and then the LC3 antibody diluted at a certain ratio was treated with a blocking solution and then reacted at room temperature for 1 hour. After the antibody-treated cells were washed 3 times with PBS, the goat-derived secondary antibody was diluted at a certain ratio using the blocking solution, and then reacted at room temperature for 30 minutes. After further washing with PBS three times, and DAPI staining was performed for intracellular nuclear staining. Then, the level of expression of p62 or FK2, the level of intracellular puncta formation, and the level of coexistence in the cells were observed by a confocal microscope.

For experiment [3], the target named is T1, p62 protein. The experiment can be described thus: Activity of p62 protein and delivery to autophagosome by immunofluorescence staining (p62, LC3-GFP) and confocal microscopy. Also noted: endogenous in cells; host or cells: HeLa. Particulars: Hela-LC3-GFP cell line, 5 uM, 24 hours. The protocol: Immunofluorescence staining was performed using p62 and FK2 marker to determine the level of activity of p62 protein of the compounds (Examples 1-20). In order to determine the level of p62 activity and autophagy activity by the novel p62 ligand and its isomers in cultured cells, Hela-LC3-GFP cell line derived from cervical cancer patients was treated with the novel p62 ligand compounds (Example 2 (ATB10047), Example 3 (ATB10049), Example 4 (ATB10051), Example 6 (ATB10056), Example 9 (ATB10060), Example 12 (ATB10078), Example 16 (ATB10087) and Example (ATB10097)) and cultured. Then, the level of puncta expression and location of LC3-GFP, which is an essential autophagosome marker for macroautophagy, and the puncta local co-existence of p62 were observed.
For immunofluorescence staining, a cover glass was placed on a 24-well plate, cells were dispensed and cultured for 24 hours, and then treated with 5 uM of the novel p62 ligand according to the present invention. The cells were further cultured for an additional 24 hours for the action of the compound, the medium was removed, and the cells were fixed using formaldehyde at room temperature. In order to prevent non-specific staining, the cells were reacted with a blocking solution at room temperature for 1 hour, and then the LC3 antibody diluted at a certain ratio was treated with the blocking solution and then reacted at room temperature for 1 hour. After the antibody-treated cells were washed 3 times with PBS, the goat-derived secondary antibody was diluted at a certain ratio using the blocking solution, and then reacted at room temperature for 30 minutes. The cells were washed again with PBS three times and subjected to DAPI staining for intracellular nuclear staining, and then the level of expression of p62 or LC3, intracellular puncta formation, and intracellular coexistence level were observed by a confocal microscope.

T1 sequence (Q13501 whole entry): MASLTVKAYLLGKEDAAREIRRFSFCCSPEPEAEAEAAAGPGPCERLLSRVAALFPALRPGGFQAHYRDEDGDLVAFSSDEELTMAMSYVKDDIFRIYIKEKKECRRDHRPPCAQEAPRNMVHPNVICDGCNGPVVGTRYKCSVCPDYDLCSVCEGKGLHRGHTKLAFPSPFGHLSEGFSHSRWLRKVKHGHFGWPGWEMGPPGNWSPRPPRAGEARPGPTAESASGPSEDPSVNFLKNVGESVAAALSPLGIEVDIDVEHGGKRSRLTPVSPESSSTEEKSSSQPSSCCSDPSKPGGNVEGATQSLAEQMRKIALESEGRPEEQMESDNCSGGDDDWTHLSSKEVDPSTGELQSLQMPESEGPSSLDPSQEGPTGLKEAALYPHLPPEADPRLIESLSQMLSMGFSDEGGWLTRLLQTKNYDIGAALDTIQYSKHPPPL

On to `NC(=O)NCc1ccc(OCc2ccccc2)cn1` [Example 6, 1-((5-(benzyloxy)pyridin-2-yl)methyl)urea], for which, on p62 protein [1], the “p62 protein oligomerization activity (immunoblot, FIGS. 2a to 2d)” value (“p62 protein oligomerization activity” below) is given as “increasing the p62 protein oligomerization activity”. In addition, at p62 protein [2], the “delivery of ubiquitinated proteins marked with FK2 to autophagosome mediated by p62 (FIGS. 3a to 3d)” value (from here on “delivery”) was “show the efficacy of delivering the proteins to be delivered to and degraded by autophagosome”. For the same compound, the “targeting of activated, oligomerized p62 protein to the autophagosome (FIG. 4)” value (“targeting of activated” for short) on p62 protein [3] was “show the efficacy of targeting them to the autophagosome”.

In the case of `OCCNCc1ccc(CCc2ccccc2)o1` [Example 16, 2-(((5-phenethylfuran-2-yl)methyl)amino)ethan-1-ol], the “p62 protein oligomerization activity” value on p62 protein [1] was “increasing the p62 protein oligomerization activity”. In addition, on p62 protein [2], the “delivery” value was “show the efficacy of delivering the proteins to be delivered to and degraded by autophagosome”. For the same compound, the “targeting of activated” value on p62 protein [3] is given as “show the efficacy of targeting them to the autophagosome”.

For the compound `COC(=O)CCNC[C@@H](O)COc1cc(OCc2ccccc2)ccn1` [Example 12, methyl (R)-3-((3-((4-(benzyloxy)pyridin-2-yl)oxy)-2-hydroxypropyl)amino)propanoate], on p62 protein [1], the “p62 protein oligomerization activity” value is listed as “increasing the p62 protein oligomerization activity”. The “delivery” value at p62 protein [2] is “show the efficacy of delivering the proteins to be delivered to and degraded by autophagosome”. Further, the “targeting of activated” value on p62 protein [3] is reported as “show the efficacy of targeting them to the autophagosome”.

For the compound `OCCNCc1ncc(OCc2ccccc2)cn1` [Example 9, 2-(((5-(benzyloxy)pyrimidin-2-yl)methyl)amino)ethan-1-ol], at p62 protein [1], the “p62 protein oligomerization activity” value was “increasing the p62 protein oligomerization activity”. The “delivery” value at p62 protein [2] is “show the efficacy of delivering the proteins to be delivered to and degraded by autophagosome”. In addition, the “targeting of activated” value on p62 protein [3] is reported as “show the efficacy of targeting them to the autophagosome”.

As to `OCCNCc1ccc(OCc2ccccc2)o1` [Example 18, 2-(((5-(benzyloxy)-furan-2-yl)methyl)amino)ethan-1-ol], on p62 protein [1], the “p62 protein oligomerization activity” value is listed as “increasing the p62 protein oligomerization activity”. Further, the “delivery” value on p62 protein [2] is “show the efficacy of delivering the proteins to be delivered to and degraded by autophagosome”. In addition, the “targeting of activated” value on p62 protein [3] is listed as “show the efficacy of targeting them to the autophagosome”.

On to `O=C(CO)NCc1ccc(OCc2ccccc2)cn1` [Example 3, N-((5-(benzyloxy)pyridin-2-yl)methyl)-2-hydroxyacetamide], for which the “p62 protein oligomerization activity” value at p62 protein [1] is listed as “increasing the p62 protein oligomerization activity”. Further, the “delivery” value on p62 protein [2] was “show the efficacy of delivering the proteins to be delivered to and degraded by autophagosome”. In addition, at p62 protein [3], the “targeting of activated” value was “show the efficacy of targeting them to the autophagosome”.

Turning to `O=C(CO)NCc1cc(OCc2ccccc2)ccn1` [Example 4, N-((4-(benzyloxy)pyridin-2-yl)methyl)-2-hydroxyacetamide], the “p62 protein oligomerization activity” value at p62 protein [1] is reported as “increasing the p62 protein oligomerization activity”. Besides, at p62 protein [2], the “delivery” value was “show the efficacy of delivering the proteins to be delivered to and degraded by autophagosome”. Also, the “targeting of activated” value at p62 protein [3] is on record as “show the efficacy of targeting them to the autophagosome”.
